Laboratory results as given in patent publication US20260248087A1, “GENERATING DOUBLED HAPLOID PLANTS” (Syngenta Crop Protection AG, priority 2023, published 2026).
Values joined by “and” are separate entries in the source; they are usually repeats but may differ in a detail not shown here. Equal entries are not always repeated.

How the values were obtained:
isolated embryos = test: Potting and transplant rate, co-treatment with benoxacor or dichlormid during colchicine treatment; type: in vivo, maize
Excerpt: As used herein, the term “potted rate” or “potting rate” refers to the percent of germinated embryos successfully transferred to soil from total treated haploid embryos. The “potted rate” is used as an indication of plant health in monitoring the success of recovery and growth after treatment of haploids. As used herein, the term “transplant rate” refers to the survival of healthy plants after embryos were germinated and transferred to soil.
Benoxacor was applied to isolated embryos of 2 genoytypes, with 2 replicates at levels of 0, 20, 50, 100 or 200 mg/L during colchicine treatment in the doubling media. The co-treatments were incubated for durations of 24 or 48 hours. […] None of the 48-hour co-treatments performed better than the equivalent co-treatment at 24 hours (see Table 18).
Dichlormid was applied to isolated embryos from 2 genotypes, with 2 replicates at levels of 0, 20, 50, 100, 200 and 300 mg/L during colchicine treatment in the doubling media. The co-treatments were incubated for durations of 24 or 48 hours. […] The highest percent transplanted rates were 92% and 88% for co-treatments 100 mg/L and 50 mg/L both at 24 hours, respectively. None of the 48-hour co-treatments performed better than the equivalent co-treatment at 24 hours (see Table 19).

corn embryos = test: Uptake of metcamifen and metabolism of colchicine in corn embryos (LCMS); type: in vitro ADME; conditions: 500 ppm colchicine, corn embryos
Description: An experiment was completed to evaluate the uptake of metcamifen into corn embryos, whether colchicine is metabolized in the embryos, and if metcamifen increased the rate of colchicine metabolism. Corn embryos were co-treated with 500 ppm colchicine in the presence of 200 ppm, 1000 ppm or no metcamifen (control) for 24 or 48 hours and frozen. One biological replicate was represented by five embryos, and three biological replicates were used per co-treatment.
Prior to extraction, embryos were washed for 20 seconds in 80:20 (v/v) acetonitrile:H2O to remove any colchicine and metcamifen on the surface. Each replicate was extracted in 0.5 ml methanol using a fast prep maceration method. Then, samples were diluted 1 in 10 prior to analysis by Liquid Chromatography Mass Spectrometry (LCMS). Samples were analyzed alongside matrix matched standards of colchicine and metcamifen. Metabolite investigations were performed to identify any metabolites.

In the case of CC1COc2ccccc2N1C(=O)C(Cl)Cl (stereo not shown) [Benoxacor, benoxacor], the “Potting Rate Mean” value (isolated embryos; benoxacor 20 mg/L, 24 hours) is reported as 79%, the “Potting Rate Mean” value (isolated embryos; benoxacor 50 mg/L, 24 hours) is reported as 90% and the “Potting Rate Mean” value (isolated embryos; benoxacor 50 mg/L, 48 hours) is reported as 40%. The “Potting Rate Mean” value (isolated embryos; benoxacor 100 mg/L, 24 hours) was 79%, the “Potting Rate Mean” value (isolated embryos; benoxacor 100 mg/L, 48 hours) was 60% and the “Potting Rate Mean” value (isolated embryos; benoxacor 200 mg/L, 48 hours) was 74%.
C=CCN(CC=C)C(=O)C(Cl)Cl [Dichlormid, dichlormid] was tested, and the “Potting Rate Mean” value (isolated embryos; dichlormid 20 mg/L, 24 hours) was 89%, the “Transplant Rate Mean” value (isolated embryos; dichlormid 20 mg/L, 24 hours) was 86% and the “Potting Rate Mean” value (isolated embryos; dichlormid 50 mg/L, 24 hours) was 90% and 91%. The “Transplant Rate Mean” value (isolated embryos; dichlormid 50 mg/L, 24 hours) was 88% and 89%, the “Potting Rate Mean” value (isolated embryos; dichlormid 100 mg/L, 24 hours) was 96% and 97% and the “Transplant Rate Mean” value (isolated embryos; dichlormid 100 mg/L, 24 hours) was 92%. The “Potting Rate Mean” value (isolated embryos; dichlormid 100 mg/L, 48 hours) was 70%, the “Transplant Rate Mean” value (isolated embryos; dichlormid 100 mg/L, 48 hours) was 70% and the “Potting Rate Mean” value (isolated embryos; dichlormid 200 mg/L, 48 hours) was 86%. For the same compound, the “Transplant Rate Mean” value (isolated embryos; dichlormid 200 mg/L, 48 hours) was 84%, the “Potting Rate Mean” value (isolated embryos; dichlormid 300 mg/L, 48 hours) was 95% and the “Transplant Rate Mean” value (isolated embryos; dichlormid 300 mg/L, 48 hours) was 93%.
COc1cc2c(c(OC)c1OC)-c1ccc(OC)c(=O)cc1[C@@H](NC(C)=O)CC2 [colchicine] was tested, and the “amount of colchicine recovered after 48 hours relative to 24 hours” value (corn embryos) was “double”.
